Measurements reported in US8147838B2, “Peptide” (priority 2005, dated 2012).
No end group written: not given here.

What was measured:
Conditions in all cases: level of binding: >0.5, 0.25-0.5, <0.25
[1] = target: MHC class I allele A*0101 (A1) (Homo sapiens, UniProt P04439, A114D/A174V/A182V/D101N/D185E/E176A/E190D/L180R/Q94H/R68K/S129P/T187R/V100A/V91M/W191G); assay: iScore multi-parametric analysis, A*0101; assay type: binding
Protocol: (§1) Finally, multiparametric analysis is performed on the results from these assays and an iScore is generated. The iScore represents a measure of the overall quality of peptide-MHC binding, enabling candidate peptides to be ranked in order of binding quality and allowing rational prioritisation of peptides for functional cellular follow-up studies.
(§2) As part of the validation of the iTopia system, a panel of overlapping peptides derived from the CMV pp 65 protein were used and their binding properties for the A*0201 allele analysed. A number of T cell epitopes restricted by HLA A*0201 had already been identified (by more conventional methodologies) by other researchers for this protein. In the iTopia study, it was reported that an iScore of: >0.5 represented “good quality binding”; between 0.25 and 0.5 represented “medium quality binding”; and <0.25 represented “poor quality binding”. Six of the 20 peptides which gave a “good” iScore (>0.5) for A*0201, represented previously characterised CMV pp 65 A*0201 epitopes.
(§3) Each MHC class I allele has different binding properties and affinities for peptides which they bind. Therefore, information obtained with HLA A*0201 in which peptides are ranked as good, medium or poor binders using >0.5, 0.25-0.5 and <0.25 as thresholds is not necessarily transferable between alleles. Also, different proteins are likely to have distinct immunogenic profiles and the affinities between peptides and MHC class I molecules will be different between proteins. This may be particularly relevant in the case of self-antigens where immunogenicity is likely to be lower than in foreign proteins.
(§4) Multi-parametric analysis permits the integration of half-life and ED50 parameters in an integrated iScore. This reflects the capability of a peptide to reconstitute with MHC molecules in a stable complex, defining its overall level of binding i.e. the iScore value represents the overall quality of peptide-MHC binding and is used to rank candidate peptides as an indicator of functional relevance. The lead candidate epitopes for each allele are selected for cellular functional analysis to confirm their biological relevance.
(§5) The changes in gradient of the graphs in FIGS. 7 to 10 are indicated by a line which delineates the populations of iScores forming the basis of discrimination for further functional studies.

[2] = target: MHC class I allele A*0301 (A3) (Homo sapiens, UniProt P04439); assay: iScore multi-parametric analysis, A*0301; assay type: binding
Protocol: as §1, §2, §3, §4, §5

[3] = target: MHC class I allele B*0702 (B7) (Homo sapiens, UniProt P01889); assay: iScore multi-parametric analysis, B*0702
Protocol: as §1
As part of the validation of the iTopia system, a panel of overlapping peptides derived from the CMV pp 65 protein were used and their binding properties for the A*0201 allele analysed. A number of T cell epitopes restricted by HLA A*0201 had already been identified (by more conventional methodologies) by other researchers for this protein. In the iTopia study, it was reported that an iScore of: >0.5 represented “good quality binding”; between 0.25 and 0.5 represented “medium quality binding”; and <0.25 represented “poor quality binding”.
as §4

[4] = target: MHC class I allele A*0201 (A2) (Homo sapiens, UniProt P04439, D140Y/D185E/D98H/E176V/E277Q/G131W/G231S/I119V/I121R/I166T/I218V/L300P/L318F/N151K/N90K/P208A/P217A/Q86G/Q94H/R138H/R169H/T345S); assay: iScore multi-parametric analysis, A*0201; assay type: binding
Protocol: as §1, §2, §3, §4, §5

Sequence	iScore, MHC Class I Molecule A*0101 [1]	iScore, MHC Class I Molecule A*0301 [2]	iScore, MHC Class I Molecule B*0702 [3]	iScore, MHC Class I Molecule A*0201 [4]
NRKGIKKWM [Peptide 189]	0	0	0	0.138
LHNGTLAEL [Peptide 137]	0	0	0.026	0.187
ILPPSLQTS [Peptide 174]	0	0	0	0.523
RNLTHLESL [Peptide 128]	0	0	0	0.072
TSSASSFSS [Peptide 18]	0	0	0	0.037
ADLSPFAFS [Peptide 78]	0	0	0	0.116
RHLDLSNNS [Peptide 119]	0	0	0	0.029
SLVSLTYVS [Peptide 123]	0	0	0	0.206
SSAPFLASA [Peptide 22]	0	0	0	0.389
SYVFLGIVL [Peptide 178]	0	0	0.045	0.118
GMVVAALLA [Peptide 99]	0	0	0	0.384
MHNIRDACR [Peptide 193]	0	0	0	0.093
AGDGRLRLA [Peptide 6]	0	0	0	0.023
AARTVKCVN [Peptide 36]	0	0	0.059	0.115
PLPDQCPAL [Peptide 29, PLPDQCPAL]	0	0	0	0.088
LSHNPLADL [Peptide 75]	0	0	0	0.095
LSNNSLVSL [Peptide 121]	0	0	0.112	0.116
SLRHLDLSN [Peptide 118]	0	0	0	0.03
GSRLDEVRA [Peptide 64]	0	0	0	0.13
TLAELQGLP [Peptide 139]	0	0	0	0.083
LDLSNNSLV [Peptide 120]	0	0	0	0.158

Sequence	iScore, MHC Class I Molecule A*0101 [1]	iScore, MHC Class I Molecule A*0301 [2]	iScore, MHC Class I Molecule B*0702 [3]	iScore, MHC Class I Molecule A*0201 [4]
GLRRLELAS [Peptide 106]	0	0	0	0.046
LQGLPHIRV [Peptide 141]	0	0	0	0.2
ILNHIVPPE [Peptide 90]	0	0	0	0.426
DGRLRLARL [Peptide 7]	0	0	0.038	0
PPSLQTSYV [Peptide 175]	0	0	0	0.145
GWVSSSSPT [Peptide 14]	0	0	0	0.044
QNRSFEGMV [Peptide 96]	0	0	0	0.052
FARRPPLAE [Peptide 56]	0	0	0	0.042
LTHLESLHL [Peptide 129]	0	0	0	0.143
YLNRKGIKK [Peptide 188]	0	0.065	0.089	0.118
HFLYLPRDV [Peptide 111]	0	0	0	0.227
FEGMVVAAL [Peptide 98, FEGMVVAAL]	0	0	0	0.051
LDLSHNPLA [Peptide 74]	0	0	0	0.226
LVLLGWVSS [Peptide 12]	0	0	0	0.122
LALVLLGWV [Peptide 11]	0	0	0	0.237
MVTWLKETE [Peptide 153]	0	0	0	0.051
EVVQGKDRL [Peptide 157]	0	0	0	0.139
HMADMVTWL [Peptide 151]	0	0	0	0.821
SPLVELILN [Peptide 87]	0	0	0	0.094
EHLPSLRQL [Peptide 70]	0	0	0	0.046
